Experimental data published in ChEMBL document CHEMBL1154256, “Inhibition of NF-kappaB activation and iNOS induction by ent-kaurane diterpenoids in LPS-stimulated RAW264.7 murine macrophages” (J Nat Prod, 2009).
Active and inactive are the calls of the source. The rule behind the calls is not given here.

What was measured:
RAW264.7 [1] = experiment: Inhibition of NF-kappaB activation in LPS-stimulated mouse RAW264.7 cells at 1 uM after 24 hrs by Western blotting; assay type: cell-based
[2] = (§1) Cytotoxicity against mouse RAW264.7 cells assessed as cell viability at 5 uM after 24 hrs by MTT assay; assay type: cell-based; conditions: RAW264.7 cells, read-out: Activity
[3] = (§2) Cytotoxicity against mouse RAW264.7 cells assessed as cell viability at 10 uM after 24 hrs by MTT assay; assay type: cell-based; conditions: RAW264.7 cells, read-out: Activity
RAW264.7 [4] = experiment: as §2; assay type: cell-based; conditions: raw264.7, 24 h, 10 µM
[5] = (§3) Cytotoxicity against mouse RAW264.7 cells assessed as cell viability at 25 uM after 24 hrs by MTT assay; assay type: cell-based; conditions: RAW264.7 cells, read-out: Activity
RAW264.7 [6] = experiment: Cytotoxicity against mouse RAW264.7 cells after 24 hrs by MTT assay; assay type: cell-based; conditions: RAW264.7, 24 h
RAW264.7 [7] = experiment: Antiinflammatory activity against mouse RAW264.7 cells assessed as inhibition of LPS-induced nitrite accumulation after 24 hrs by Griess reagent method; assay type: functional, cell-based; conditions: for IC50: RAW264.7, 24 h
RAW264.7 [8] = experiment: Antiinflammatory activity against mouse RAW264.7 cells assessed as inhibition of LPS-induced iNOS expression at 0.1 to 5 uM after 24 hrs by Western blotting; assay type: functional, cell-based
RAW264.7 [9] = experiment: Inhibition of iNOS mRNA expression in LPS-stimulated mouse RAW264.7 cells at 5 uM after 8 hrs by RT-PCR; assay type: functional, cell-based
[10] = Inhibition of NF-kappaB activation in LPS-stimulated mouse RAW264.7 cells assessed as relative luciferase activity after 24 hrs by dual reporter gene assay; assay type: cell-based; conditions: RAW264.7, 24 h
RAW264.7 [11] = experiment: Inhibition of NF-kappaB p65 subunit translocation into nucleus in LPS-stimulated mouse RAW264.7 cells assessed as p65 protein level at 5 uM treated after LPS-stimulation for 24 hrs measured after 60 mins by Western blotting; assay type: functional, cell-based
RAW264.7 [12] = experiment: Inhibition of NF-kappaB p65 subunit translocation into nucleus in LPS-stimulated mouse RAW264.7 cells assessed as p65 protein level at 1 uM pretreated for 1 hr before LPS challenge after 60 mins immunofluorescence microscopy; assay type: functional, cell-based
RAW264.7 [13] = experiment: as §3; assay type: cell-based; conditions: raw264.7, 24 h, 25 µM
[14] = target: T1, Inhibitor of nuclear factor kappa-B kinase subunit beta (Mus musculus) (UniProt O88351); experiment: Inhibition of LPS-stimulated IkappaB degradation in mouse RAW264.7 cells assessed as cellular IkappaB level at 5 uM treated after LPS-stimulation for 24 hrs measured after 60 mins by Western blotting; assay type: cell-based
T1 sequence (whole entry): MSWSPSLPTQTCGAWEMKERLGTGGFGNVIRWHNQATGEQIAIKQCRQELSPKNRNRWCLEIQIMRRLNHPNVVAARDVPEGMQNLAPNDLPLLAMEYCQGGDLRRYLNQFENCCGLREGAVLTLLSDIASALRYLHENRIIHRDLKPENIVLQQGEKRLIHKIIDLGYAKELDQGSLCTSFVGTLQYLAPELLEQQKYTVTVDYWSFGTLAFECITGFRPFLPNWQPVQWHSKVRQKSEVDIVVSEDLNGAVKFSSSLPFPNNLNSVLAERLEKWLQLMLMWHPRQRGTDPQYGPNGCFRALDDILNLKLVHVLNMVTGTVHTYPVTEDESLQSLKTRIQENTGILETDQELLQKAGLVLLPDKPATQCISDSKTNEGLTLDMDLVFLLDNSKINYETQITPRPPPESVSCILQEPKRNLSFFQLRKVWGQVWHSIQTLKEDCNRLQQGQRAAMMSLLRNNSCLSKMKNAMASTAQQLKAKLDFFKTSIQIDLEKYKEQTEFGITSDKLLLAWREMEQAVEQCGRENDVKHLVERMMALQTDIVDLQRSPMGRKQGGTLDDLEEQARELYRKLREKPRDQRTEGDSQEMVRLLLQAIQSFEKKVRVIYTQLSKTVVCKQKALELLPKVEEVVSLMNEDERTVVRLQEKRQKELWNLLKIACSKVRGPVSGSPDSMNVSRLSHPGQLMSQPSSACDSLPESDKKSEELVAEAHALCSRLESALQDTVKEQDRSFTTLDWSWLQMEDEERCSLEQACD

RAW264.7 [15] = experiment: as §1; assay type: cell-based; conditions: raw264.7, 24 h, 5 µM

IC50 (RAW264.7 [7]) [nM] | IC50 [10] [nM] | Activity [14] | Compound | inhibition (RAW264.7 [1]) | viability at 24 h, 5 µM [2] [%] | viability at 24 h, 10 µM [3] [%] | Activity (RAW264.7 [4]) | viability at 24 h, 25 µM [5] [%] | IC50 (RAW264.7 [6]) [µM] | inhibition (RAW264.7 [7]) | inhibition (RAW264.7 [8]) | inhibition (RAW264.7 [9]) | Activity (RAW264.7 [11]) | Activity (RAW264.7 [12]) | Activity (RAW264.7 [13]) | Activity (RAW264.7 [15])
435 | 1200 |  | C=C1C(=O)[C@]23[C@H](O)[C@H]1CC[C@H]2[C@]12CCC[C@@](C)(COC(C)=O)[C@H]1[C@H](O)[C@]3(O)OC2 [LONGIKAURIN B] | Active | > 97.5 | > 97.5 | Non-toxic | > 97.5 | 44.8 | Dose-dependent effect | Active | Active | Active | Active |  | 
673 | 1600 | Active | C=C1C(=O)[C@]23[C@H](O)[C@H]1C[C@H](OC(C)=O)[C@H]2[C@]12CCCC(C)(C)[C@H]1C(=O)[C@]3(O)[C@H]2O [XEROPHILUSIN F] | inactive | > 97.5 | > 97.5 |  | > 97.5 | 52.4 | Dose-dependent effect | Active | Active | Active | Active | Non-toxic | 
600 | 1800 |  | C=C1C(=O)[C@@]23[C@@H]4O[C@H]5O[C@@]2(O)[C@@H](O)[C@@H]2C(C)(C)CCC[C@]52[C@@H]3[C@@H](OC(C)=O)C[C@@H]14 [XEROPHILUSIN A] | Active | > 97.5 | > 97.5 |  | > 97.5 | 11.3 | Dose-dependent effect | Active | Active | Active | Active |  | Non-toxic
225 | 700 |  | C=C1C(=O)[C@@]23[C@@H]4O[C@H]5O[C@@]2(O)[C@@H](O)[C@@H]2C(C)(C)CCC[C@]52[C@@H]3CC[C@@H]14 [XEROPHILUSIN B] | Active | > 97.5 | > 97.5 |  | > 97.5 | 10.1 | Dose-dependent effect | Active | Active | Active | Active |  | Non-toxic
